Patent US12186356B2, “Composition for preventing, alleviating, or treating allergic skin disease comprising as active ingredient extract of gardenia fruit from which pigment is removed” (KOREA INSTITUTE OF ORIENTAL MEDICINE, priority 2018, dated 2025)

Experiments:
[1] = system: NC/Nga mouse with induced allergic atopic dermatitis (house dust mite antigen); assay: Number of itching in an animal model with allergic atopic dermatitis, extract orally administered; assay type: in vivo; details: oral 100 mg/kg or 200 mg/kg once a day for 14 days; itching counted for 20 minutes; p<0.05 to p<0.001; FIG. 6
Protocol: On the skin of a 8-week old NC/Nga mouse, 100 mg of an ointment (AD Biostir, Japan) which contains components originating from house dust mite as an antigen causing allergic atopy were applied, total 6 times for 21 days with an interval of 3 to 4 days to induce allergic atopic dermatitis. On a day of starting the test, 150μl of 4% SDS were applied to the animal, and, after allowing it to stand for 1 hour, 100 mg of the house dust mite antigen were applied to back and both ears of the animal, respectively. Seven days after inducing allergic atopic dermatitis, the animal was orally administered with 100 mg/kg or 200 mg/kg of the pharmaceutical (extract of gardenia fruit or extract of gardenia fruit from which pigment is removed), once a day for 14 days.
Thereafter, using the animal model with induced allergic dermatitis, number of itching in the ear and back of the animal for 20 minutes was examined once a week to compare the effects obtained according to administration of a pharmaceutical. All the measurement results are expressed in terms of mean and standard deviation (SD), and a difference among test groups was subjected to a statistical analysis using one-way ANOVA. Statistical significance was recognized when p is less than 0.05 (p<0.05).

[2] = system: inflammatory cells; assay: Change in inflammatory cell infiltration in ear and back skin tissues, H&E staining; assay type: in vivo, NC/Nga mouse; details: skin tissues of back and ear; applied on skin; p<0.01 or p<0.001; FIG. 4
Protocol: (§1) On the skin of a 8-week old NC/Nga mouse, 100 mg of an ointment (AD Biostir, Japan) which contains components originating from house dust mite as an antigen causing allergic atopy were applied, total 6 times for 21 days with an interval of 3 to 4 days to induce allergic atopic dermatitis. Seven days after inducing allergic atopic dermatitis, the animal was applied with 1 mg/ml of the pharmaceutical (extract of gardenia fruit (GJE 1%), extract of gardenia fruit from which pigment is removed (GJE-CR 1%), or tacrolimus), once a day for 14 days. Skin tissues of the ear and back of a mouse with induced allergic dermatitis were collected and, by H&E (hematoxylin and eosin) staining and use of an image measuring program (Solution FL ver 9.1), a change in inflammatory cell infiltration was determined. All the measurement results are expressed in terms of mean and standard deviation (SD), and a difference among test groups was subjected to a statistical analysis using one-way ANOVA. Statistical significance was recognized when p is less than 0.05 (p<0.05).

[3] = system: mast cells; assay: Number of mast cells in ear and back skin tissues, toluidine blue staining; assay type: in vivo, NC/Nga mouse; details: applied on skin, p<0.01 or p<0.001, FIG. 5
Protocol: as §1, with “toluidine blue (TB)” for “H&E (hematoxylin and eosin)”, “number of mast cells” for “a change in inflammatory cell infiltration”

[4] = system: NC/Nga mouse with induced allergic atopic dermatitis (house dust mite antigen); assay: Skin state and number of scratching (itching) in an animal model with allergic atopic dermatitis, extract applied on skin; assay type: in vivo; details: applied on skin once a day for 14 days; itching counted for 20 minutes; p<0.001; FIG. 3
Protocol: On the skin of a 8-week old NC/Nga mouse, 100 mg of an ointment (AD Biostir, Japan) which contains components originating from house dust mite as an antigen causing allergic atopy were applied, total 6 times for 21 days with an interval of 3 to 4 days to induce allergic atopic dermatitis. Seven days after inducing allergic atopic dermatitis, the animal was applied with 1 mg/ml of the pharmaceutical (extract of gardenia fruit (GJE 1%), extract of gardenia fruit from which pigment is removed (GJE-CR 1%), or tacrolimus), once a day for 14 days. Thereafter, using the mouse with induced allergic dermatitis, number of itching for 20 minutes and level of skin damage on ear and back of the animal were examined once a week. All the measurement results are expressed in terms of mean and standard deviation (SD), and a difference among test groups was subjected to a statistical analysis using one-way ANOVA. Statistical significance was recognized when p is less than 0.05 (p<0.05).

Row | Compound | number of scratching (number of itching) over days compared to the control group (Control) [1] | inflammatory cells compared to the control group (Control) [2] | mast cells compared to the control group (Control) [3] | number of scratching (number of itching) compared to the control group (Control) [4]
1 | C[C@]12C=CC(=O)C=C1CC[C@@H]1[C@@H]2[C@@H](O)C[C@@]2(C)[C@H]1CC[C@]2(O)C(=O)CO [prednisolone] | decreased with statistical significance |  |  | 
2 | C=CC[C@@H]1/C=C(\C)C[C@H](C)C[C@H](OC)[C@H]2O[C@@](O)(C(=O)C(=O)N3CCCC[C@H]3C(=O)O[C@H](/C(C)=C/[C@@H]3CC[C@@H](O)[C@H](OC)C3)[C@H](C)[C@@H](O)CC1=O)[C@H](C)C[C@@H]2OC [tacrolimus] |  | decreased with statistical significance | decreased with statistical significance | decreased with statistical significance
